Experimental data taken from patent publication US7112573B2, “Isoflavone and triterpene glycosides from soybeans” (Iowa Research, The University Foundation, priority 2002, dated 2006).
Converted amounts (≈) assume the structure as drawn.

What was measured:
Assay type in all cases: cell-based, human
Conditions in all cases: 6 days incubation, 50% reduction of absorbance vs untreated controls, mean of 2 observations
[1] = test system: Hs 740.T stomach carcinoma cell line; test: MTT cytotoxicity assay, Hs 740.T
From the text: (§1) Here, as described herein below, the inventors used human stomach carcinoma (Hs 740.T, Hs 756 T), breast adenocarcinoma (Hs 578 T, Hs 742.T) and prostate carcinoma (DU 145, and LNCaP-FGC) cell lines to evaluate the cytotoxic activities of extracts and the compounds provided the invention. The 50% effective doses (ED50) obtained by measuring growth inhibition with MTT (3-[4,5-dimethlthiazol-2-yl]-2,5-diphenyltetrazolium bromide]) (Goren et al, 1996; Rubinstein et al, 1990) are shown in Table 3.
(§2) The following materials and reagents were used for cell culture and cytotoxic assays. Human stomach carcinoma (Hs 740.T, Hs 756 T), breast adenocarcinoma (Hs 578 T, Hs 742.T) and prostate carcinoma (DU 145, LNCaP-FGC) cell lines were purchased from the American Type Culture Collection ATCC. Dulbecco's modified Eagle medium (DMEM) (Gibco, Grand Island, N.Y.), Eagle Minimum Essential Medium (EMEM) and Rosewell Park Memorial Institute (RPMI) 1640 medium were from Nissui Pharm. Co., Ltd., Tokyo, Japan. Flat-bottom plates, 96-well were from Iwaki Glass Co., LTD (Funabashi-Chiba-Ken, Japan). The 3-[4,5-dimethlthiazol-2-yl]-2,5-diphenyltetrazolium bromide (MTT) colorimetric assay (Goren et al., 1996; Rubinstein et al., 1990) was from Sigma (St. Louis, Mo., USA), and 10% fetal bovine serum FBS was from Gibco BRL (Rockville, Md., USA). All other chemicals used were of analytical reagent grade.
(§3) Cell lines Hs 740.T, Hs 746 T, Hs 578 T and Hs 742.T were cultured in Dulbecco's Modified Eagle's Medium (DMEM) containing 10% heat-inactivated Fetal Bovine Serum (FBS). The DU 145 cells were cultured in Eagle Minimum Essential Medium (EMEM) containing Earle's salts and supplemented with amino acids and 10% heat-inactivated FBS. The LNCaP-FGC cell lines were maintained in Rosewell Park Memorial Institute (RPMI) 1640 medium containing 10% heat-inactivated FBS. All cell lines were cultivated in an incubator at 37° C. in humidified air containing 5% CO2. For routine cytotoxicity assays, all six cell lines were adapted to one single medium RPMI 1640 medium supplemented with 10% FBS, 2 mM L-glutamine, penicillin (100 units/mL) and streptomycin (100 μg/mL). For the microassay, the growth medium was supplemented with 10 mM HEPES (1-(2-hydroxyethyl) piperazine-4-ethanesulfonic acid) buffer (pH 7.3) and incubated at 37° C. in a CO2 incubator. These methods are similar to those used by Goren et al., (1996) AND Rubinstein et al., (1990).
(§4) Cellular viability in the presence and absence of experimental agents was determined using the standard MTT (3-[4,5-dimethlthiazol-2-yl]-2,5-diphenyltetrazolium bromide) calorimetric assay (Goren et al., 1996; Rubinstein et al., 1990). The assay is based on reduction of MTT by the mitochondrial dehydrogenase of viable cells to give a blue formazan product that can be measured spectrophotometrically (Goren et al., 1996; Rubinstein et al., 1990). In brief, exponentially growing cells were harvested, and 200 μL cells suspension were seeded in 96-well microplates and preincubated for 24 h at 37° C. under 5% CO2 to allow cell attachment. After attachment, 10 μL of an EtOH: H2O (1:1 solution) containing varying concentrations of test samples were added to wells in duplicate, and 10 μL EtOH:H2O (1:1) was added into wells as a control. Sample containing microplates were further incubated for 6 days. Cell survival was evaluated by adding 10 μL of 5 mg mL of MTT in 0.1 mM, pH 7.4 phosphate buffered saline to each well, and reincubating plates in 5% CO2/air for 4 h at 37° C. Plates were then centrifuged at 1,500×g for 5 min to precipitate cells and MTT formazan. An aliquot of 100 μL of the supernatant was removed, and DMSO (100 μL) was added to dissolve the precipitated, reduced MTT. The plate was mixed on a microshaker for 10 min, and the absorbance was determined at 550 nm with a multiwell scanning spectrophotometer (Dynex MR 5000, Chantilly Va.). […]

[2] = test system: Hs 746 T stomach carcinoma cell line; test: MTT cytotoxicity assay, Hs 746 T
From the text: as §1, §2, §3, §4

[3] = test system: Hs 578 T breast adenocarcinoma cell line; test: MTT cytotoxicity assay, Hs 578 T
From the text: as §1, §2, §3, §4

[4] = test system: HS 742.T breast adenocarcinoma cell line; test: MTT cytotoxicity assay, HS 742.T
From the text: as §1, §2, §3, §4

[5] = test system: DU 145 prostate carcinoma cell line; test: MTT cytotoxicity assay, DU 145
From the text: as §1, §2, §3, §4

[6] = test system: LNCAp-FGC prostate carcinoma cell line; test: MTT cytotoxicity assay, LNCaP-FGC
From the text: as §1, §2, §3, §4

Row | Compound | ED50 Stomach Carcinoma Hs 740.T [1] | ED50 Stomach Carcinoma Hs 746 T [2] | ED50 Breast Adenocarcinoma Hs 578 T [3] | ED50 Breast Adenocarcinoma HS 742.T [4] | ED50 Prostate Carcinoma DU 145 [5] | ED50 Prostate Carcinoma LNCAp-FGC [6]
1 | O=C1c2c(O)cc(O[C@@H]3O[C@H](CO)[C@@H](O)[C@H](O)[C@H]3O)cc2OCC1c1ccc(O)cc1 (stereo partly drawn) [Compound 2, 7-O-β-D-glucopyranosyl-5,7,4′-trihydroxyisoflavanone] | 15.12 µg/mL (≈ 34.8 µM) | 12.24 µg/mL (≈ 28.2 µM) | 15.36 µg/mL (≈ 35.4 µM) | 30.80 µg/mL (≈ 70.9 µM) | 10.25 µg/mL (≈ 23.6 µM) | 41.58 µg/mL (≈ 95.7 µM)
2 | O=C1c2ccc(O[C@@H]3O[C@H](CO)[C@@H](O)[C@H](O)[C@H]3O)cc2OCC1c1ccc(O)cc1 (stereo partly drawn) [Compound 1, 7-O-β-D-glucopyranosyl-4′-hydroxy-isoflavanone] | 17.37 µg/mL (≈ 41.5 µM) | 14.92 µg/mL (≈ 35.7 µM) | 28.23 µg/mL (≈ 67.5 µM) | 33.57 µg/mL (≈ 80.2 µM) | 9.16 µg/mL (≈ 21.9 µM) | 32.45 µg/mL (≈ 77.6 µM)
3 | CC1(C)C[C@H]2C3=CC[C@@H]4[C@@]5(C)CC[C@H](O[C@@H]6O[C@H](C(=O)O)[C@@H](O)[C@H](O)[C@H]6O[C@@H]6O[C@H](CO)[C@H](O)[C@H](O)[C@H]6O)[C@](C)(CO)[C@@H]5CC[C@@]4(C)[C@]3(C)CC[C@@]2(C)[C@H](O[C@@H]2OC[C@H](O)[C@H](O[C@@H]3O[C@H](CO)[C@@H](O)[C@H](O)[C@H]3O)[C@H]2O)[C@@H]1O [Compound 15, 3-O-{[β-D-galactopyranosyl-(1→2)-β-D-glucuronopyranosyl]}-22-O-[β-D-glucopyranosyl(1→3)-α-L-arabinopyranosyl]soyasapogenol A, reference compound] | 3.15 µg/mL (≈ 2.84 µM) | 3.22 µg/mL (≈ 2.91 µM) | 4.84 µg/mL (≈ 4.37 µM) | 30.10 µg/mL (≈ 27.2 µM) | 2.11 µg/mL (≈ 1.91 µM) | 30.70 µg/mL (≈ 27.7 µM)
4 | CC1(C)C[C@@H](O)[C@]2(C)CC[C@]3(C)C(=CC[C@@H]4[C@@]5(C)CC[C@H](O[C@@H]6O[C@H](C(=O)O)[C@@H](O)[C@H](O)[C@H]6O)[C@@](C)(CO)[C@@H]5CC[C@]43C)[C@@H]2C1 [Compound 17, 3-O-[β-D-glucuronopyranosyl]soyasapogenol B, reference compound] | 9.61 µg/mL (≈ 15.1 µM) | 9.59 µg/mL (≈ 15.1 µM) | 8.77 µg/mL (≈ 13.8 µM) | 28.68 µg/mL (≈ 45.2 µM) | 9.13 µg/mL (≈ 14.4 µM) | 37.29 µg/mL (≈ 58.7 µM)
5 | O=c1c(-c2ccc(O)cc2)coc2cc(O)cc(O)c12 [Compound 5, genistein, reference compound] | 4.38 µg/mL (≈ 16.2 µM) | 5.82 µg/mL (≈ 21.5 µM) | 3.50 µg/mL (≈ 13 µM) | 14.88 µg/mL (≈ 55.1 µM) | 2.39 µg/mL (≈ 8.84 µM) | 25.45 µg/mL (≈ 94.2 µM)
6 | CC1(C)C[C@@H](O)[C@]2(C)CC[C@]3(C)C(=CC[C@@H]4[C@@]5(C)CC[C@H](O[C@@H]6O[C@H](C(=O)O)[C@@H](O)[C@H](O)[C@H]6O[C@@H]6O[C@H](CO)[C@H](O)[C@H](O)[C@H]6O[C@@H]6O[C@H](CO)[C@@H](O)[C@H](O)[C@H]6O)[C@@](C)(CO)[C@@H]5CC[C@]43C)[C@@H]2C1 [Compound 16, 3-O-[β-D-glucopyranosyl-(1→2)-β-D-galactopyranosyl(1→2)-β-D-glucuronopyranosyl] soyasapogenol B, reference compound] | 8.97 µg/mL (≈ 9.35 µM) | 7.36 µg/mL (≈ 7.67 µM) | 9.87 µg/mL (≈ 10.3 µM) | 31.55 µg/mL (≈ 32.9 µM) | 5.75 µg/mL (≈ 5.99 µM) | 40.68 µg/mL (≈ 42.4 µM)
7 | C[C@@H]1O[C@@H](O[C@H]2[C@H](O[C@@H]3CC(C)(C)C[C@H]4C5=CC[C@@H]6[C@@]7(C)CC[C@H](O[C@@H]8O[C@H](C(=O)O)[C@@H](O)[C@H](O)[C@H]8O[C@@H]8O[C@H](CO)[C@H](O)[C@H](O)[C@H]8O[C@@H]8O[C@@H](C)[C@H](O)[C@@H](O)[C@H]8O)[C@@](C)(CO)[C@@H]7CC[C@@]6(C)[C@]5(C)CC[C@@]34C)OC[C@H](O)[C@@H]2O)[C@H](O)[C@H](O)[C@H]1O [Compound 13] | 3.53 µg/mL (≈ 2.89 µM) | 2.47 µg/mL (≈ 2.02 µM) | 2.39 µg/mL (≈ 1.96 µM) | 17.51 µg/mL (≈ 14.3 µM) | 3.12 µg/mL (≈ 2.55 µM) | 27.50 µg/mL (≈ 22.5 µM)
8 | C[C@@H]1O[C@@H](O[C@H]2[C@H](O[C@H]3[C@H](O[C@H]4CC[C@@]5(C)[C@@H](CC[C@]6(C)[C@@H]5CC=C5[C@@H]7CC(C)(C)C[C@@H](O[C@@H]8O[C@H](CO)[C@@H](O)[C@H](O)[C@H]8O[C@@H]8O[C@@H](C)[C@H](O)[C@@H](O)[C@H]8O)[C@]7(C)CC[C@]56C)[C@]4(C)CO)O[C@H](C(=O)O)[C@@H](O)[C@@H]3O)O[C@H](CO)[C@H](O)[C@@H]2O)[C@H](O)[C@H](O)[C@H]1O [Compound 14] | 4.10 µg/mL (≈ 3.28 µM) | 3.94 µg/mL (≈ 3.15 µM) | 2.12 µg/mL (≈ 1.69 µM) | 14.63 µg/mL (≈ 11.7 µM) | 3.25 µg/mL (≈ 2.6 µM) | 24.10 µg/mL (≈ 19.3 µM)
9 | COc1ccc(-c2coc3cc(OC4OC(COC(C)=O)[C@@H](O)C(O)C4OC(C)=O)ccc3c2=O)cc1 (stereo partly drawn) [Compound 3, formononetin-7-O-(2″,6″-O-diacetyl) glucopyranoside] | 7.61 µg/mL (≈ 14.8 µM) | 8.89 µg/mL (≈ 17.3 µM) | 5.44 µg/mL (≈ 10.6 µM) | 25.53 µg/mL (≈ 49.6 µM) | 4.18 µg/mL (≈ 8.12 µM) | 22.12 µg/mL (≈ 43 µM)
